Reference: US9376420B2 (YUHAN CORPORATION, priority 2012, dated 2016)

Target: T1, human LXRβ (Homo sapiens, UniProt P55055)
T1 construct: expressed in transfected cells; host or cells: HEK293 cells (ATCC CRL-1573), transient transfection with pFA-hLXRβ/GAL4 and pUAS
T1 sequence (P55055 222-460 limits assumed): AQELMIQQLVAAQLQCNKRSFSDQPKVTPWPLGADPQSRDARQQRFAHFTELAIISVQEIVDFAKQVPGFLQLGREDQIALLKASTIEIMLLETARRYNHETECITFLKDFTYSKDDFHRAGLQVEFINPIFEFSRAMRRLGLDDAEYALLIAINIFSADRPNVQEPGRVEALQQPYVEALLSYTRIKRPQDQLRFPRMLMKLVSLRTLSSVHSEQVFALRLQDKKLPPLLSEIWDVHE
Test: Assay for Transcriptional Activity of LXRβ (GAL4-hLXRβ LBD luciferase reporter, transient transfection)
Format: cell-based
Settings: HEK293 cells transfected with pFA-hLXRβ/GAL4 and pUAS, 24 hours; for Emax: fold value in comparison with the control (DMSO-treated group); for EC50: increase of transcriptional activity of LXRβ, average of three independent tests
Source text: The ligand-binding domain (LBD) cDNA of human LXRβ was inserted into an expression vector (pFA, Stratagene, USA) site adjacent to the yeast GAL4 transcription factor DNA binding domain to prepare an expression construct (pFA-hLXRβ/GAL4) (Willey et al., Genes & Development 9 1033-1045 (1995). The GAL4-responsive luciferase reporter plasmid, i.e., pUAS (Stratagene, USA), contained five copies of the GAL4 response element placed adjacent to the promoter and the luciferase reporter gene. The pFA-hLXRβ/GAL4 and pUAS were introduced into mammalian cells through transient transfection, followed by measuring the transcriptional activity of LXRβ.
HEK293 cells (human kidney cells, sATCC, CRL-1573) were incubated at a T-75 flask containing a DMEM supplemented with 10% fetal bovine serum (FBS) in a 37° C., until they reach about 70˜80% confluency. The culture media containing the cells was added to each well of a 96-well plate in a density of 5×10^4 cells per well. The pFA-hLXRβ/GAL4 and pUAS was transfected to the cells using a cationic-lipid transfection reagent (Lipofectamine™, Invitrogen), through culturing at 37° C. for 3 hours for transient transfection according to the manufacturer's instruction. The test compounds were dissolved in dimethyl sulfoxide (DMSO) in the concentrations of 50, 30, 10, 3, 1, 0.3, 0.1, 0.03, and 0.01 μM and then cells were treated with the prepared compound-containing solution (100 μl). The cells were incubated at 37° C. for 24 hours. After removal of the medium from each well, the lysis buffer (25 mM Tricine pH7.8, 2 mM DTT, 2 mM EGTA, 10% glycerol, 1% Triton X-100) was added with the amount of 20 μl per each well, and the plate was stirred at room temperature for 15 minutes. The luciferase reagent (prepared by adding 10 ml of the luciferase buffer (Promega) to 1 vial of the luciferase substrate (Promega)) was added to each well with the amount of 100 μl per well, followed by assaying with a luminometer according to the manufacturer's instruction.
The dose-response curve for calculating the EC50 values of the test compounds on the increase of transcriptional activity of LXRβ was prepared using the known LXR agonist (i.e., N-(2,2,2-trifluoro-ethyl)-N-[4-(2,2,2-trifluoro-1-hydroxy-1-trifluoromethyl-ethyl)-phenyl]-benzenesulfonamide) as a positive control and the vehicle (DMSO) as a negative control. The dose-response curve was produced from the 9-point curve having different concentrations at a 1/2 log unit. The EC50 value of a test compound, which is defined as a concentration for initiating the reaction corresponding to the half value between the Top value (i.e., the maximum value) and the Bottom value (baseline), was calculated according to the following equation. Y=Bottom+(Top-Bottom)/(1+10^((log EC50-X)*Hill Slope)).
In the above equation, Y is the observed value; X is the log concentration; Hill Slope is the slope of the curve; and Top and Bottom are the maximum value of test compound and the baseline value, respectively.
The following tables 1 and 2 show the EC50 values of the test compounds measured as in the above. In the tables 1 and 2, each EC50 value represents an average value obtained from three independent tests.

Compound | Emax [fold] | EC50 [nM]
N#Cc1cncc(-c2ccc(C3CC(C(O)(C(F)(F)F)C(F)(F)F)=NN3c3ccccc3Cl)cc2)c1 (stereo not drawn) [Example 278, 1-(2-chloro-phenyl)-5-[4-(5-cyano-pyridin-3-yl)-phenyl]-3-[di-(trifluoromethyl)-hydroxy-methyl]-4,5-dihydro-1H-pyrazole] | 68 | 731
OC(C1=NN(c2ccccc2Cl)C(c2ccc(-c3ccc(C(F)(F)F)nc3)cc2)C1)(C(F)(F)F)C(F)(F)F (stereo not drawn) [Example 272, 1-(2-chloro-phenyl)-5-[4-(6-trifluoromethyl-pyridin-3-yl)-phenyl]-3-[di-(trifluoromethyl)-hydroxy-methyl]-4,5-dihydro-1H-pyrazole] | 24 | 2250
OC(C1=NN(c2ccccc2Cl)C(c2ccc(-c3cnc4ccccc4c3)cc2)C1)(C(F)(F)F)C(F)(F)F (stereo not drawn) [Example 259, 1-(2-chloro-phenyl)-5-(4-quinolin-3-yl-phenyl)-3-[di-(trifluoromethyl)-hydroxy-methyl]-4,5-dihydro-1H-pyrazole] | 57 | 519
COc1ccc(-c2ccc(C3CC(C(O)(C(F)(F)F)C(F)(F)F)=NN3c3ccccc3Cl)cc2)c(Cl)c1 (stereo not drawn) [Example 255, 5-(2′-chloro-4′-methoxy-biphenyl-4-yl)-1-(2-chloro-phenyl)-3-[di-(trifluoromethyl)-hydroxy-methyl]-4,5-dihydro-1H-pyrazole] | 58 | 1080
OC(C1=NN(c2ccccc2Cl)C(c2ccc(-c3cccnc3)cc2)C1)(C(F)(F)F)C(F)(F)F (stereo not drawn) [Example 277, 1-(2-chloro-phenyl)-5-[4-(pyridin-3-yl)-phenyl]-3-[di-(trifluoromethyl)-hydroxy-methyl]-4,5-dihydro-1H-pyrazole] | 65 | 364
CSc1ccc(-c2cccc(C3CC(C(F)(F)C(F)(F)F)=NN3c3ccc(F)cc3F)c2)cn1 (stereo not drawn) [Example 77, 1-(2,4-difluoro-phenyl)-5-[3-(2-methylsulfanyl-pyridin-5-yl)-phenyl]-3-pentafluoroethyl-4,5-dihydro-1H-pyrazole] | 57 | 7180
Cc1ccccc1-c1ccc(C2CC(C(O)(C(F)(F)F)C(F)(F)F)=NN2c2ccccc2Cl)cc1 (stereo not drawn) [Example 249, 1-(2-chloro-phenyl)-5-(2′-methyl-biphenyl-4-yl)-3-[di-(trifluoromethyl)-hydroxy-methyl]-4,5-dihydro-1H-pyrazole] | 115 | 784
CC(=O)Nc1cccc(-c2ccc(C3CC(C(O)(C(F)(F)F)C(F)(F)F)=NN3c3ccccc3Cl)cc2)c1 (stereo not drawn) [Example 309, 5-(3′-acetaminobiphenyl-4-yl)-1-(2-chloro-phenyl)-3-[di-(trifluoromethyl)-hydroxy-methyl]-4,5-dihydro-1H-pyrazole] | 84 | 1940
COc1ccc(-c2cccc(C3CC(C(F)(F)C(F)(F)F)=NN3c3ccccc3Cl)c2)cc1OC (stereo not drawn) [Example 112, 1-(2-chloro-phenyl)-5-(3′,4′-dimethoxy-biphenyl-3-yl)-3-pentafluoroethyl-4,5-dihydro-1H-pyrazole] | 57 | 8520
CN(CCCS(=O)(=O)c1cccc(-c2cccc(N3N=C(C(F)(F)C(F)(F)F)CC3c3ccc(F)cc3F)c2)c1)C(=O)OC(C)(C)C (stereo not drawn) [Example 211, 5-(2,4-difluoro-phenyl)-1-{3′-[3-(N-BOC-N-methyl-amino)-propane-1-sulfonyl]-biphenyl-3-yl}-3-pentafluoroethyl-4,5-dihydro-1H-pyrazole] | 29 | 509
CCOc1cccc(-c2ccc(C3CC(C(O)(C(F)(F)F)C(F)(F)F)=NN3c3ccccc3Cl)cc2)c1 (stereo not drawn) [Example 251, 1-(2-chloro-phenyl)-5-(3′-ethoxy-biphenyl-4-yl)-3-[di-(trifluoromethyl)-hydroxy-methyl]-4,5-dihydro-1H-pyrazole] | 96 | 1950
Oc1cccc(-c2ccc(C3CC(C(O)(C(F)(F)F)C(F)(F)F)=NN3c3ccccc3Cl)cc2)c1 (stereo not drawn) [Example 252, 1-(2-chloro-phenyl)-5-(3′-hydroxy-biphenyl-4-yl)-3-[di-(trifluoromethyl)-hydroxy-methyl]-4,5-dihydro-1H-pyrazole] | 62 | 2350

Results, then the compound that gave them:

Emax [fold] | EC50 [nM] | Compound
82 | – | CS(=O)(=O)c1cccc(-c2ccc(C3CC(C(O)(C(F)(F)F)C(F)(F)F)=NN3c3ccccc3Cl)s2)c1 (stereo not drawn) [Example 419, 1-(2-chloro-phenyl)-5-{5-[3-(methylsulfonyl)-phenyl]-thiophen-2-yl}-3-[di-(trifluoromethyl)-hydroxy-methyl]-4,5-dihydro-1H-pyrazole]
74 | 154 | CS(=O)(=O)N1CCCN(c2ccc(C3CC(C(O)(C(F)(F)F)C(F)(F)F)=NN3c3ccc(F)cc3F)cc2)CC1 (stereo not drawn) [Example 410, 1-(2,4-difluoro-phenyl)-5-[4-(4-methanesulfonyl-homopiperazin-1-yl)-phenyl]-3-[di-(trifluoromethyl)-hydroxy-methyl]-4,5-dihydro-1H-pyrazole]
48 | 1300 | CN(C)C(=O)N1CC=C(c2cccc(C3CC(C(F)(F)C(F)(F)F)=NN3c3ccc(F)cc3F)c2)CC1 (stereo not drawn) [Example 64, 1-(2,4-difluoro-phenyl)-5-[3-(1-dimethylcarbamoyl-1,2,3,6-tetrahydropyridin-4-yl)-phenyl]-3-pentafluoroethyl-4,5-dihydro-1H-pyrazole]
54 | 344 | CCS(=O)(=O)N1CCCN(c2ccc(C3CC(C(O)(C(F)(F)F)C(F)(F)F)=NN3c3ccccc3Cl)cc2)CC1 (stereo not drawn) [Example 323, 1-(2-chloro-phenyl)-5-[4-(4-ethanesulfonyl-homopiperazin-1-yl)-phenyl]-3-[di-(trifluoromethyl)-hydroxy-methyl]-4,5-dihydro-1H-pyrazole]
36 | 632 | CS(=O)(=O)c1cccc(-c2ccc(C3CC(C(O)(C(F)(F)F)C(F)(F)F)=NN3c3ccccc3Cl)cc2)n1 (stereo not drawn) [Example 286, 1-(2-chloro-phenyl)-5-{4-[6-(methylsulfonyl)-pyridin-2-yl]-phenyl}-3-[di-(trifluoromethyl)-hydroxy-methyl]-4,5-dihydro-1H-pyrazole]
56 | 7050 | CS(=O)(=O)c1ccc(-c2cncc(C3CC(C(F)(F)C(F)(F)F)=NN3c3ccc(F)cc3F)c2)cn1 (stereo not drawn) [Example 166, 1-(2,4-difluoro-phenyl)-5-[3-(6-methanesulfonyl-pyridin-3-yl)-pyridin-5-yl]-3-pentafluoroethyl-4,5-dihydro-1H-pyrazole]
39 | 632 | CC(=O)c1cccc(-c2ccc(C3CC(C(O)(C(F)(F)F)C(F)(F)F)=NN3c3ccccc3Cl)cc2F)c1 (stereo not drawn) [Example 361, 5-(3′-acetyl-2-fluoro-biphenyl-4-yl)-1-(2-chloro-phenyl)-3-[di-(trifluoromethyl)-hydroxy-methyl]-4,5-dihydro-1H-pyrazole]
23 | 1020 | CC(C)C(=O)N1CC=C(c2ccc(C3CC(C(O)(C(F)(F)F)C(F)(F)F)=NN3c3ccc(F)cc3F)cc2)CC1 (stereo not drawn) [Example 402, 1-(2,4-difluoro-phenyl)-5-[4-(1-isobutyryl-1,2,3,6-tetrahydropyridin-4-yl)-phenyl]-3-[di-(trifluoromethyl)-hydroxy-methyl]-4,5-dihydro-1H-pyrazole]
